# “And” between values parts separate entries of the source, which are not always exact repeats. Equal values may be shown once.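 Protocol summary: plate cells (96-well), add compound at 5 concentrations, incubate 48 h, interpolate endpoints linearly. GI50 marks 50% less growth. TGI: total growth inhibition.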
# Key:
# Test in all cases: DTP human tumour cell line panel, 48 h
# [1] = test system: RPMI-8226 leukemia
# [2] = test system: A549 NSCLC
# [3] = test system: DMS 273 small cell lung
# [4] = test system: SK-MEL-28 melanoma
# [5] = test system: NCI-H460 lung
# [6] = test system: OVCAR-3 ovarian
# [7] = test system: HOP-92 NSCLC
# [8] = test system: CAKI-1 renal
# [9] = test system: HS 578T breast
# [10] = test system: DMS 114 small cell lung
Compound,TGI [1],TGI [2],TGI [3],TGI [4],TGI [5],TGI [6],TGI [7],TGI [8],GI50 [1],GI50 [9],TGI [9],GI50 [2],GI50 [4],GI50 [5],GI50 [6],GI50 [7],GI50 [8],TGI [10]
COc1ccc(C(C)Nc2cc(OC)c(OC)c(OC)c2)cc1 (stereo not drawn),> 100 µM,> 100 µM,> 100 µM,> 100 µM,> 25.5 µM,6.99 µM,> 100 µM,> 100 µM,–,–,–,–,–,–,–,–,–,–
CN(C)c1ccc(/C=N/N=C(\C#N)[S][Sn]([Cl])([c]2ccccc2)[c]2ccccc2)cc1,5.15 µM,9.05 µM,–,2.93 µM,4.75 µM,2.59 µM,2.87 µM,2.56 µM,1.43 µM,2.7 µM,9.19 µM,2.84 µM,1.48 µM,2.18 µM,1.3 µM,1420 nM,1.27 µM,–
O=c1c(Oc2ccc(F)cc2F)cc2cnc(NC3CCOCC3)nc2n1C1CC1,> 25 µM,> 25 µM,–,> 25 µM,> 25 µM,> 25 µM,10.6 µM,> 25 µM,> 25 µM,> 16.9 µM,> 25 µM,> 25 µM,> 25 µM,> 25 µM,> 25 µM,172 nM,> 25 µM,–
COc1ccc(Cn2c(Br)c3c(c2-c2cc(OC)c(OC)c(OC)c2)CCc2sc(N)nc2-3)cc1,32.4 µM,> 100 µM,–,33.6 µM,10.2 µM,9.61 µM,2.88 µM,> 28.2 µM,3.16 µM,2.08 µM,> 100 µM,2.23 µM,4.76 µM,1.89 µM,0.861 µM,477 nM,0.765 µM,–
CC1=C(C(=O)Nc2ccc3[nH]ncc3c2)C(c2ccc(F)cc2)N=C(c2ccc(C(F)(F)F)nc2)N1 (stereo not drawn),> 25 µM,> 25 µM,–,> 25 µM,> 25 µM,> 25 µM,7.6 µM,> 25 µM,20 µM,5.05 µM,20.2 µM,13.4 µM,> 19.9 µM,11.8 µM,9.07 µM,548 nM,11.9 µM,–
CC(C)c1ccc2c(c1)CCC1C2CCCC1(C)NCc1ccccc1 (stereo not drawn),4.98 µM,31.1 µM,–,3.83 µM,12.9 µM,24.4 µM,4.13 µM,15.3 µM,2.02 µM,4.99 µM,23.7 µM,15.5 µM,1.98 µM,3.43 µM,9.34 µM,1950 nM,3.22 µM,–
FC(F)(F)c1cccc(CNC2CCN(CCc3ccccc3)CC2)c1,51.5 µM,> 100 µM,–,31.7 µM,39.6 µM,> 100 µM,47.1 µM,> 100 µM,22.6 µM,17.7 µM,57.5 µM,40.3 µM,16 µM,19.1 µM,32.6 µM,11200 nM,22.4 µM,–
CCOC(=O)C#Cc1c(C(=O)OCC)nnn1[C@@H]1O[C@H](COC)[C@@H](OC)[C@H]1OC,17.2 µM,40.4 µM,–,12.8 µM,36.2 µM,3.25 µM,7.61 µM,3.14 µM,4.16 µM,23.7 µM,72.7 µM,20.9 µM,3.49 µM,17.8 µM,1.72 µM,2800 nM,1.74 µM,–
CN1CCN(C(=O)/C=C/c2ccc([N+](=O)[O-])o2)CC1,64.5 µM,41.5 µM,–,49.3 µM,45.1 µM,26.2 µM,26.1 µM,34.3 µM,16 µM,46.5 µM,> 100 µM,18.8 µM,9.59 µM,14.9 µM,12.9 µM,11400 nM,10.6 µM,–
COc1cc(/C=C/c2cc(/C=C/c3ccc(O)c(OC)c3)n(C(=O)Nc3ccc(C)cc3)n2)ccc1O,1.34 µM,4.6 µM,–,6.87 µM,1.86 µM,1.99 µM,4.18 µM,6.95 µM,0.261 µM,0.278 µM,0.689 µM,0.419 µM,0.797 µM,0.339 µM,0.417 µM,682 nM,0.311 µM,–
CC(C)(C)C1CCC(O)(c2ccccc2)CC1 (stereo not drawn),> 100 µM and 66.6 µM,> 100 µM and 89.2 µM,> 100 µM and 33.6 µM,> 100 µM and 64.5 µM,> 100 µM and 55.8 µM,> 100 µM and 41.7 µM,–,–,–,–,–,–,–,–,–,–,–,> 100 µM and 52.5 µM
O=C(NO)c1ccc(CNc2cccc3nc(C4CC4)n(-c4ccccc4)c(=O)c23)cc1,11.3 µM,5.74 µM,–,4.26 µM,5.65 µM,5.51 µM,6.82 µM,7.51 µM,2.69 µM,2.5 µM,20.6 µM,2.23 µM,2.01 µM,1.9 µM,1.92 µM,1990 nM,2.12 µM,–
C/C(=C\c1csc(C)n1)[C@@H]1C[C@@H]2O[C@]2(C)CCC[C@H](C)[C@H](O)[C@@H](C)C(=O)C(C)(C)[C@@H](O)CC(=O)N1,< 1e-05 µM,0.000294 µM,–,0.000436 µM,0.00036 µM,0.000377 µM,< 1e-05 µM,0.0434 µM,< 1e-05 µM,8.61e-05 µM,0.000226 µM,9.28e-05 µM,0.000219 µM,0.000109 µM,0.000158 µM,< 0.01 nM,0.0137 µM,–
CCCCCCCCCCCCOC1C(C(COC2OC(C(O)CO)C3OC(C)(C)OC23)OC(=O)Nc2ccccc2)OC2OC(C)(C)OC21 (stereo not drawn),15.2 µM,20.6 µM,–,19.3 µM,13.3 µM,19.6 µM,20.1 µM,25.9 µM,3.93 µM,6.13 µM,18.6 µM,6.08 µM,7.24 µM,3.88 µM,6.52 µM,7290 nM,12 µM,–
COc1cc2c(Oc3ccc(-c4cnc(Nc5ccc(F)cc5)n(C)c4=O)cc3F)ccnc2cc1OCCCN1CCOCC1,4.71 µM,3.42 µM,–,2.28 µM,3.22 µM,3.15 µM,1.01 µM,2.46 µM,1.84 µM,0.933 µM,3.4 µM,1.66 µM,0.97 µM,1.51 µM,1.64 µM,83 nM,1.05 µM,–
